{
  "source": "patent US8044037B2",
  "about": "“Modified phosphocalcic compound, injectable composition containing same” (Centre National de la Recherche Scientifique, priority 2002, dated 2011)",
  "tested_on": "rabbit osteoclast model (osteoclast resorption)",
  "experiment": "Supernatants of incubated CDA samples tested in rabbit osteoclast model (FIG. 6)",
  "type": "cell-based",
  "conditions": "supernatant after 96 hours at 37° C. (200 mg in 5 ml culture medium) or 10^−6 M zoledronate solution; pure, diluted 10-, 100- and 1000-fold",
  "experimental": "Several samples of CDA (200 mg) modified by adding zoledronate in accordance with the process of example 1 and several samples of unmodified CDA were incubated in 5 ml of culture medium at 37° C. After incubation for 96 hours, the various supernatants were collected and used pure, diluted 10-fold, 100-fold and 1000-fold in a rabbit osteoclast model.\nThe results are represented in FIG. 6, in which the percentage of resorption R is indicated on the y-axis, the conditions being indicated on the x-axis. Among the conditions: • “vehicle” means the culture medium alone • “pure CDA” means the supernatant derived from the incubation of pure CDA in the culture medium; “CDA 1/10”, “CDA 1/100” and “CDA 1/1000” mean, respectively, the solution referred to above and diluted to 1/10, 1/100 and 1/1000 • “pure zo” means a 10^−6 M solution of zoledronate in the culture medium, “zo 1/10”, “zo 1/100” and “zo 1/1000” mean, respectively, the solution referred to above and diluted to 1/10, 1/100 and 1/1000 • “pure CDAzo” means the supernatant derived from the incubation of zoledronate-containing CDA in the culture medium, and “CDAzo 1/10”, “CDAzo 1/100” and “CDAzo 1/1000” mean, respectively, the solution referred to above and diluted to 1/10, 1/100 and 1/1000.",
  "data": [
    {"smiles": "O=P(O)(O)C(O)(Cn1ccnc1)P(=O)(O)O", "note": "[zoledronate]", "values": [
      {"measurement": "effect on osteoclast resorption (percentage of resorption R, FIG. 6)", "result": "inhibits resorption according to a dose/effect relationship"}
    ]}
  ]
}
